How the values were obtained:
[1] = tested on: EGFR-CD44 and EGFR-β1 integrin interaction; test: EGFR co-IP assay with CD44 and β1 integrin in HT1080 cells; format: cell-based, Human; settings: 50 μM
Method: HT1080 cells were treated with 50 μM 3c, 1a, 1f or DMSO alone. Cell lysates were collected and analyzed by a co-IP assay in which endogenous EGFR was captured with an anti-EGFR antibody and served as an input control. CD44 and β1 integrin were individually probed on the immunoblot.

[2] = biological target: T1, MMP-9 association with CD44 and EGFR (Homo sapiens, UniProt P14780); test: co-immunoprecipitation of endogenous CD44 and EGFR with MMP-9 in HT1080 cells; format: cell-based; settings: 50 μM overnight
T1 construct: expressed in transfected cells; host or cells: HT1080 human fibrosarcoma cells (MMP-9 transfected; CD44 and EGFR endogenous)

[3] = tested on: EGFR^Tyr1068, AKT^Ser473, Erk1/2^Thr202/Tyr204 phosphorylation; test: phosphorylation of EGFR and downstream targets in HT1080 cells; format: cell-based, Human; settings: 50 μM overnight
[4] = tested on: Src^Tyr418, FAK^Tyr576/577, PAX^Tyr118 phosphorylation; test: phosphorylation of Src and downstream targets in HT1080 cells; format: cell-based, Human; settings: 50 μM
Method: (§1) HT1080 cells transiently co-transfected with tagged MMP-9 cDNAs were prepared as described above.

[5] = tested on: proMMP-14-mediated migration of COS-1 cells; test: two-dimensional dot migration assay, COS-1 cells stably expressing proMMP-14; format: cell-based
Method: To test whether compound 3c is specific for inhibiting only proMMP9-mediated migration, a two-dimensional dot migration assay was performed using COS-1 cells engineered to stably express vector control pQCXIP, proMMP-2, proMMP-9, or proMMP-14 cDNA vectors. An immunoblot was performed to confirm protein expression and proper localization of each MMP (MMP-2/-9 are secreted while MMP-14 is membrane bound).

[6] = biological target: T2, MMP-9 interaction with α4/β1 integrin (Homo sapiens, UniProt P14780); test: co-immunoprecipitation of endogenous integrin with MMP-9 in HT1080 cells; format: cell-based; settings: 50 μM
T2 construct: expressed in transfected cells; host or cells: HT1080 cells (MMP-9 transfected; integrin endogenous)
Method: as §1

[7] = tested on: HT1080 fibrosarcoma cells; test: chronic toxicity in HT1080 cells; format: cell-based, Human; settings: 100 μM, HT1080 cells re-treated every three days for nine days
Method: Compound 3c was evaluated for acute cytotoxicity. COS-1 cells stably expressing either vector control or proMMP-9 cDNA were treated with 50 μM 3c for 24 hours. As negative and positive controls, cells were treated with DMSO alone or 100 nM staurosporine (STS), an apoptosis inducer, respectively. […] A non-statistically significant 8% decrease in cell growth occurred after treatment with 50 μM of compound 3c. These experiments were repeated in endogenous MMP-9 expressing HT1080 fibrosarcoma cells, which were analyzed for chronic toxicity (cells were re-treated every three days for a total of nine days).

T2 sequence (P14780 94-707): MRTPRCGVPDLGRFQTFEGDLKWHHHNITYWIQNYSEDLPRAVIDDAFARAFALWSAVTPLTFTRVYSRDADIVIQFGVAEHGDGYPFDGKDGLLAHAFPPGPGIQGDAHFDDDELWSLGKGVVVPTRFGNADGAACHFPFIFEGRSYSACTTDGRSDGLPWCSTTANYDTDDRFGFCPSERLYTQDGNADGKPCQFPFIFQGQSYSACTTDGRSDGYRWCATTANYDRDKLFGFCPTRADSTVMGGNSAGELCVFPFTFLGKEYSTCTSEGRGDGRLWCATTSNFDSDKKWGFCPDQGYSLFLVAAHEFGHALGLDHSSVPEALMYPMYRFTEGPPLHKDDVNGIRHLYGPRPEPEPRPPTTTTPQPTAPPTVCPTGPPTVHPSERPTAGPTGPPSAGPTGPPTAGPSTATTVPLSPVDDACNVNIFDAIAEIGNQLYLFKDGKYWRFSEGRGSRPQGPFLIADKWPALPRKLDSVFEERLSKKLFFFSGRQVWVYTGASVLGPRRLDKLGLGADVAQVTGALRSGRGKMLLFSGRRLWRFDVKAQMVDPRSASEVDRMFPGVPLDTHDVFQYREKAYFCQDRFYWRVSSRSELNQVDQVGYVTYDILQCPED
T1 sequence (P14780 94-707): as above

## O=C(CCCSc1nc2c(c(=O)[nH]1)CCCC2)Nc1ccc(F)cc1 [Compound 3c, N-(4-Fluorophenyl)-4-(4-oxo-3,4,5,6,7,8-hexahydroquinazolin-2-ylthio)butanamide]
[1]
  interaction between EGFR-CD44 and EGFR-β1 integrin: Decreased interaction between EGFR-CD44 and EGFR-β1 integrin
[2]
  endogenous CD44 and EGFR co-immunoprecipitation: reduced endogenous CD44 and EGFR co-immunoprecipitation
[3]
  phosphorylation of EGFR^Tyr1068 and downstream targets AKT^Ser473 and Erk1/2^Thr202/Tyr204: reduced phosphorylation
[4]
  Src^Tyr418 phosphorylation and phosphorylation of FAK^Tyr576/577 and PAX^Tyr118: reduced Src^Tyr418 phosphorylation
[5]
  inhibition of proMMP-14-mediated migration: only inhibited proMMP9-mediated migration
[6]
  endogenous α4β3 integrin co-immunoprecipitation: reduced endogenous α4β3 integrin co-immunoprecipitation
[7]
  cell death, chronic toxicity: No cell death was observed

Source: US11040947B2, “Substituted quinazolines as matrix metalloproteinase-9 hemopexin domain inhibitors” (The Research Foundation for The State University of New York, priority 2017, dated 2021)
